Patent US11612572B2, “Treatment of schizophrenia using beta-caryophyllene and CB2 receptor agonists” (priority 2012, dated 2023)
“Also recorded” adds a separate entry of the source.

How the values were obtained:
[1] = test system: mouse model of schizophrenia; experiment: Behavior in the Phenotyper cage; format: in vivo, mice; settings: Study II
cannabinoid receptor CB2 = cannabinoid receptor CB2 (Homo sapiens, UniProt P34972); settings: cited from earlier work
[2] = orally-administered; cited from earlier work
[3] = in vivo; cited from earlier work
[4] = test system: mouse model of schizophrenia; experiment: Elevated Plus Maze test; settings: for time spent in the distal end of the opened arm (anxiety): Study I, age 13 weeks
[5] = Body weight of mice in the neonatal PCP model
[6] = test system: mouse model of schizophrenia; experiment: Prepulse inhibition (PPI) of the startle reflex; settings: for % inhibition (ability to adjust to sound stimulus, PPI): Study I, age 8 weeks
[7] = test system: mouse model of schizophrenia; experiment: Open-field test (ambulation/crossing, rearing, grooming)
[8] = Study II, PND 68, saline-treated mice
[9] = Study III: male mice, PND 17, PCP 5 mg/kg, 1 h later BCP 10 mg/kg or BCP+AM630 10 mg/kg each, DMSO-based vehicle

cannabinoid receptor CB2, sequence (P34972 whole entry): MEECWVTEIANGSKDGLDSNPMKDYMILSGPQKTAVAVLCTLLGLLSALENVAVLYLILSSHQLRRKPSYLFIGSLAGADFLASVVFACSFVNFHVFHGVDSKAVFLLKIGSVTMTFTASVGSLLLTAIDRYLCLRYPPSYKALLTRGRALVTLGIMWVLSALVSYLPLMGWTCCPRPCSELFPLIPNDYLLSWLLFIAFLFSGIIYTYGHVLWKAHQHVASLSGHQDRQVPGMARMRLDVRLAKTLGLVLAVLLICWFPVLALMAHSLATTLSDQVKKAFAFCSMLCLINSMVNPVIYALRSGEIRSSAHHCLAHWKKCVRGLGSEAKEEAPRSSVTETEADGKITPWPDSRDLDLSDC

beta-caryophyllene [BCP]
time spent in the food zone ([1]; PND 91): did not affect the time spend in the food zone | time spent at the drinking zone ([1]; PND 91, compared with PCP-treated group): appeared to reduce the time spend at the drinking zone | frequency of entries to the wheel ([1]; PND 91, females and males): reversed the effects of PCP on the frequency of entries to the wheel; also recorded: reversed the effects of PCP on frequency of entries to the wheel | time spent in the Hidden Zone ([1]; PND 91, females and males): reversed the effects of PCP on the time spend in the Hidden Zone; also recorded: reversed the effects of PCP on the time spent in the hidden zone | frequency of entries to the hidden zone ([1]; PND 91, males (FIG. 20D)): reversed the effect of PCP in males | frequency of entries to the Wheel Zone ([1]; PND 105): appeared to reduce the effect of PCP on the frequency of entries to the Wheel Zone | frequency of entries to the hidden zone ([1]; PND 105): reversed the effects of PCP on the frequency of entries to the hidden zone; also recorded: reversed the effect of PCP on frequency of entries to hidden zone | time spent at the hidden zone ([1]; PND 105): reversed the effects of PCP on the time spend at the hidden zone; also recorded: reversed the effect of PCP on time spent at the hidden zone | time spent in the wheel ([1]; PND 105): showed a trend to reverse the effect of PCP on the time spend in the wheel | activity at CB2 receptor (cannabinoid receptor CB2): CB2-receptor agonist | oral absorption / systemic availability [2]: absorbed by the digestive tract and becomes systemically available | toxicity [3]: apparent substantial non-toxicity | time spent in the distal end of the opened arm (anxiety) ([4]; females (FIGS. 6E, 6G)): reversed this effect; also recorded: reversed both effects | time spent in the distal end of the opened arm (anxiety) ([4]; males (FIGS. 6F, 6H)): reversed this effect; also recorded: reversed both effects | behavior in the Plus Maze test ([4]; Study II, PND 64 (FIGS. 19A-19F)): did not reverse the effects of PCP on behavior in the Plus Maze test | body weight ([5]; Study I, BCP 10 mg/kg in DMSO-based vehicle (FIG. 12C)): completely reversed the effect of PCP on body weight | body weight ([5]; Study I, ethanol-based vehicle, PND 7 / first week of life (FIG. 1B)): reversed the reduction in body weight during the first week of life | body weight ([5]; Study I: PCP 5 mg/kg PND 3-16, BCP 10 mg/kg 1 h after PCP, ethanol-based vehicle, each day of injection PND 3-17 (FIG. 1A)): did not restore the weight completely | body weight ([5]; Study I, PND 17 (FIG. 2C)): no significant difference between groups treated with PCP with or without BCP | body weight ([5]; Study I, PND 17, males (FIG. 3A)): appeared to be more prominent | body weight ([5]; Study I, PND 35-37, females (FIG. 4D)): significantly reversed the effect of PCP on female body weight | body weight ([5]; Study I, PND 35-37, males (FIG. 4A)): no significant difference in male body weight between the groups | body weight ([5]; Study II: BCP 5 mg/kg twice a week on PND 43-61 (FIG. 14A)): did not affect body weight | body weight ([5]; Study II, PND 104): did not increase body weight in females and males, rather reduced body weight of PCP+BCP treated group | % inhibition (ability to adjust to sound stimulus, PPI) ([6]; females (FIG. 5D)): No significant difference | % inhibition (ability to adjust to sound stimulus, PPI) ([6]; males (FIG. 5B)): reversed this effect; also recorded: significantly reversed the effect of PCP on the sensorimotor-gate in males | response to startle at the end of the PPI test ([6]; Study II, PND 68 (FIGS. 18A-18C)): did not affect the response to startle at the end of the PPI test | pre-pulse inhibition (% PPI) ([6]; Study II, PND 68, PCP-treated mice (FIG. 16A)): significantly reversed the effect of PCP on pre-pulse inhibition; also recorded: reversed the effect of PCP on PPI | response to pre-pulse tones ([6]; Study II, PND 68, PCP-treated mice (FIGS. 17A-17C)): significantly reversed the effect of PCP on response to pre-pulse tones; also recorded: reversed the effect of PCP on the response to tone | startle response ([6]; Study II, PND 68, females (FIG. 16B)): significantly reversed the effect of PCP on startle response in females | response to the startle stimuli ([6]; Study II, PND 68, males (FIG. 16C)): no difference in the response to the startle stimuli between groups | pre-pulse inhibition (% PPI) [6, 8]: no substantial effect on saline-treated mice | response to pre-pulse tones [6, 8]: no effect on saline-treated mice | response to the startle stimuli (120 dB) ([6]; Study II, PND 106 (FIGS. 25A-25C)): no difference in the response to the startle stimuli (120 dB) between groups | response to tones ([6]; Study II, PND 106 (FIGS. 25D-25F)): reversed the effect of PCP on the response to tones | % pre-pulse inhibition (PPI) ([6]; Study II, PND 106 (FIGS. 25G-25I)): reversed the effect of PCP on the % pre-pulse inhibition; also recorded: reversed the effect of PCP on attention at PND106 | ambulation ([7]; Study I, DMSO-based carrier, PND 17, males (FIG. 12A)): completely reversed the effects of PCP | rearing behavior ([7]; Study I, DMSO-based carrier, PND 17, males (FIG. 12B)): completely reversed the effects of PCP | rearing ([7]; Study I, ethanol-based vehicle, PND 17 (FIG. 2B)): reversed the effects of PCP on rearing and exploration | ambulation (exploration) ([7]; Study I: PCP 5 mg/kg, BCP 10 mg/kg, ethanol-based vehicle, PND 17 (FIG. 2A)): reversed the effects of PCP on rearing and exploration | ambulation ([7]; Study I, PND 17, females): reversed a proportion of the effects of PCP on ambulation and rearing behavior of female mice | rearing behavior ([7]; Study I, PND 17, females): reversed a proportion of the effects of PCP on ambulation and rearing behavior of female mice | locomotor activity ([7]; Study I, PND 17, males): appeared to be less sensitive to the treatment of PCP or PCP+BCP | rearing and exploration behaviors ([7]; Study I, PND 35-37, females (FIGS. 4E, 4F)): no differences in rearing and exploration behaviors were seen between the different groups | rearing behavior ([7]; Study I, PND 35-37, males (FIG. 4B)): significantly reduced rearing behavior as compared to vehicle and PCP-treated groups | locomotor activity ([7]; Study I, PND 35-37, males (FIG. 4C)): reduced locomotor activity; also recorded: significantly reversed the effect of PCP in males | exploration ([7]; Study II: BCP in adolescence compared with saline-treated mice, PND 63): significantly inhibited the exploration of mice compared with saline-treated mice | ambulation ([7]; Study II: neonatal PCP, BCP 5 mg/kg PND 43-61, PND 63, male and female): significantly reversed the effect of PCP on ambulation in male and female mice | rearing ([7]; Study II, PND 63, females and males (FIGS. 15A-15C)): reversed the effect of PCP on rearing in both females and males | exploratory behavior ([7]; Study II, PND 104, females (last BCP treatment PND 61)): a relapse in exploratory behavior was evident | self-grooming (total, without stimuli) ([7]; Study II, PND 104, females or males): did not reverse the effect of PCP on self-grooming; also recorded: did not reverse the effect of PCT on grooming | exploration ([7]; Study II, PND 104, males): improved exploration and rearing behaviors of male PCP treated mice | rearing behavior ([7]; Study II, PND 104, males): still significantly higher than that of PCP-treated mice with no BCP treatment; also recorded: improved exploration and rearing behaviors of male PCP treated mice | ambulation [7, 9]: reversed the effects of PCP on rearing and exploration | rearing [7, 9]: reversed the effects of PCP on rearing and exploration
